Legend:
[1] = biological target: T1, Amyloid-beta precursor protein (Homo sapiens, UniProt P05067); experiment: Binding affinity to amyloid beta (1 to 42) (unknown origin) monomer
[2] = biological target: T1, Amyloid-beta precursor protein; experiment: Binding affinity to amyloid beta (1 to 40) (unknown origin) monomer
[3] = biological target: T1, Amyloid-beta precursor protein; experiment: Binding affinity to amyloid beta (1 to 42) (unknown origin) fibrils
[4] = biological target: T1, Amyloid-beta precursor protein; experiment: Binding affinity to amyloid beta (1 to 40) (unknown origin) fibrils
[5] = Binding affinity to amyloid beta (unknown origin); design: species or system Homo sapiens
[6] = Binding affinity to tau protein (unknown origin); design: species or system Homo sapiens
[7] = Binding affinity to amyloid beta (unknown origin) aggregates; design: species or system Homo sapiens
[8] = Lipophilicity, logP of compound; format: physicochemical; settings: octanol/water
[9] = Inhibition of amyloid beta (unknown origin) self-induced aggregation; design: species or system Homo sapiens
[10] = biological target: T1, Amyloid-beta precursor protein; experiment: Binding affinity to amyloid beta (1 to 42) (unknown origin) aggregates
[11] = Binding affinity to amyloid beta (unknown origin) monomer; design: species or system Homo sapiens
[12] = biological target: T1, Amyloid-beta precursor protein; experiment: Binding affinity to amyloid beta (1 to 42) (unknown origin) oligomer
[13] = biological target: T1, Amyloid-beta precursor protein; experiment: Binding affinity to amyloid beta (1 to 40) (unknown origin) oligomer
[14] = biological target: T1, Amyloid-beta precursor protein; experiment: Binding affinity to human amyloid beta (1 to 42) monomer measured by fluorescence assay
[15] = biological target: T1, Amyloid-beta precursor protein; experiment: Binding affinity to human amyloid beta (1 to 42) aggregates measured by fluorescence assay
[16] = biological target: T1, Amyloid-beta precursor protein; experiment: Binding affinity to human amyloid beta (1 to 42) oligomer measured by fluorescence assay
[17] = Drug uptake in brain of Tg mouse; format: ADME, tissue-based; settings: Tg, brain, read-out: Drug uptake
[18] = biological target: T1, Amyloid-beta precursor protein; experiment: Displacement of [125I]IMPY from amyloid beta (1 to 42) (unknown origin) measured by competitive radioligand binding assay
[19] = Drug uptake in brain of Tg mouse at 2 mins post injection; format: ADME, tissue-based; settings: read-out: Drug uptake

T1 sequence (P05067 whole entry): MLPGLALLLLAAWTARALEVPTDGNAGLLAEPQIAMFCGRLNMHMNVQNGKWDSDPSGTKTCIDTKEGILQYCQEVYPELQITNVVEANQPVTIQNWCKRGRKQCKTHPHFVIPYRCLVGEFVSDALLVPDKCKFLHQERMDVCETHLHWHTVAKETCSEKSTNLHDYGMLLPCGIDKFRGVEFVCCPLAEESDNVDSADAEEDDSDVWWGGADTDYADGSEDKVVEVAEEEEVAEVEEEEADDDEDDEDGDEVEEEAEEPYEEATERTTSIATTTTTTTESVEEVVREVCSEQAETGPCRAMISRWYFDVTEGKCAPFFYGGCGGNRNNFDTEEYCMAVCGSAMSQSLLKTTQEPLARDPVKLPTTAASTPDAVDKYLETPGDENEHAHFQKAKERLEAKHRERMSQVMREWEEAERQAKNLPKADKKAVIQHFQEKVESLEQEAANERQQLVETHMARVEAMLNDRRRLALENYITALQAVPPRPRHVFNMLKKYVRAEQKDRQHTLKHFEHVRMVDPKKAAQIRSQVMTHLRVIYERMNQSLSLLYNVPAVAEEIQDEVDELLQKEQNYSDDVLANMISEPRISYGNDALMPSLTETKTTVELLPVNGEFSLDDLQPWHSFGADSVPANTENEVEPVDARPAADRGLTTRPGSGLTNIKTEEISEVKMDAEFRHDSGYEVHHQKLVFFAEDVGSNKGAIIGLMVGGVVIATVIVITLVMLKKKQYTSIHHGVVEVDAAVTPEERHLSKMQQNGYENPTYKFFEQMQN

**Q.** With CCO[n+]1ccc(/C=C/c2ccc(N(C)C)cc2)c2ccccc21 as the compound, how does the Kd [1] read?
**A.** 17.6 µM

**Q.** What about the Kd [2] of the same compound?
**A.** 13 µM

**Q.** And the Kd [3]?
**A.** 7.78 µM

**Q.** What about the Kd [4] of the same compound?
**A.** 4.29 µM

**Q.** With CN(C)c1ccc(/C=C/c2cc(/C=C/c3ccc(N(C)C)cc3)ncn2)cc1 as the compound, how does the IC50 [5] read?
**A.** 0.004 µM

**Q.** And the Kd [6]?
**A.** 0.054 µM

**Q.** What does the source list for CC(C)CC1=CC(/C=C/C=C/c2ccc(N(C)C)cc2)=[O+][B-](F)(F)O1?
**A.** Kd [5]: 1.41 µM; Kd [6]: 50 µM

**Q.** With COCCOCCOCCOC(=O)/C(C#N)=C/c1ccc(N2CCCCC2)cc1 as the compound, how does the Kd [7] read?
**A.** 19.4 µM

**Q.** With CCOC(=O)CN1C(=O)/C(=C/c2ccc3c(c2)Sc2ccccc2N3C)SC1=S as the compound, how does the logP [8] read?
**A.** 3.68

**Q.** And the IC50 [9]?
**A.** 0.67 µM

**Q.** What about the Kd [7] of the same compound?
**A.** 0.0075 µM

**Q.** Which Ki [5] does the source give for O=C(O)c1cc(/N=N/c2ccc(-c3ccc(/N=N/c4ccc(O)c(C(=O)O)c4)cc3)cc2)ccc1O [CHRYSAMINE G] here?
**A.** 370 nM

**Q.** Which Kd [10] does the source give for CN(C)c1ccc(/C=C/C=C/C=C(C#N)C#N)cc1 here?
**A.** 0.0269 µM

**Q.** What about the Ki [10] of the same compound?
**A.** 0.0369 µM

**Q.** Which Kd [7] does the source give for COCCOCCOCCOC(=O)/C(C#N)=C/c1ccc(-c2ccc3cc(N4CCCCC4)ccc3c2)s1 here?
**A.** 0.53 µM

**Q.** For COCCOCCOCC1=C2C(C)=CC(/C=C/c3ccc(N(C)C)cc3)=[N+]2[B-](F)(F)n2c(/C=C/c3ccc(N(C)C)cc3)cc(C)c21, which Kd [11] is on record?
**A.** 0.097 µM

**Q.** Which Kd [7] does the source give for COCCOCCOCCOC(=O)/C(C#N)=C/c1ccc(-c2ccc3cc(N4CCCCC4)ccc3c2)o1 here?
**A.** 0.36 µM

**Q.** Which Kd [11] does the source give for COc1ccc(/C=C/c2ccc3n2[B-](F)(F)[N+]2=C(C)C=CC2=C3/C=C/c2ccc(N(C)C)cc2)cc1 here?
**A.** 0.23 µM

**Q.** For Cc1ccc2nc(-c3ccc(N(C)C)cc3)sc2c1, which Ki [4] is on record?
**A.** 0.143 µM

**Q.** For CN(C)c1ccc(/C=C/C=C/C=C2C(=O)OC(C)(C)OC2=O)cc1, which Ki [10] is on record?
**A.** 0.354 µM

**Q.** Which Kd [1] does the source give for CCCCN(CCCC)c1ccc2cc(/C=C/c3cc[n+](CCO)c4ccccc34)ccc2c1 here?
**A.** 1090 µM

**Q.** And the Kd [12]?
**A.** 490 µM

**Q.** And the Kd [2]?
**A.** 246 µM

**Q.** What about the Kd [3] of the same compound?
**A.** 848 µM

**Q.** What about the Kd [13] of the same compound?
**A.** 41.7 µM

**Q.** And the Kd [4]?
**A.** 33.3 µM

**Q.** Which results are given for CCCCN(CCCC)c1ccc2cc(/C=C/c3cc[n+](C)c4ccccc34)ccc2c1?
**A.** Kd [1]: 281 µM; Kd [12]: 128 µM; Kd [2]: 71.1 µM; Kd [3]: 246 µM; Kd [13]: 20.1 µM; Kd [4]: 39.3 µM

**Q.** For CC1=CC(C)=[N+]2C1=Cc1ccc(/C=C/c3ccc(-c4ccc([125I])cc4)s3)n1[B-]2(F)F, which Ki [10] is on record?
**A.** 0.108 µM

**Q.** With COCCOCCOCC1=C2C(C)=CC(C)=[N+]2[B-](F)(F)n2c(/C=C/c3ccc(N(C)C)cc3)cc(C)c21 as the compound, how does the Kd [11] read?
**A.** 0.0486 µM

**Q.** With CCN(CC)c1ccc(/C=C/C2=CC(/C=C/c3ccc(N(CC)CC)nc3)=[O+][B-](F)(F)O2)cn1 as the compound, how does the Kd [14] read?
**A.** 0.024 µM

**Q.** What about the Kd [15] of the same compound?
**A.** 0.027 µM

**Q.** And the Kd [16]?
**A.** 0.016 µM

**Q.** With CCN(CC)c1ccc(/C=C/C2=CC(/C=C/c3ccc(N(C)C)cc3)=[O+][B-](F)(F)O2)cn1 as the compound, how does the Kd [1] read?
**A.** 0.0458 µM

**Q.** And the logP [8]?
**A.** 1.94

**Q.** And the Kd [2]?
**A.** 0.106 µM

**Q.** For Cc1cc(/C=C/c2ccc(-c3ccc(N(C)C)cc3)s2)n2c1C=C1C=CC=[N+]1[B-]2(F)F, which Kd [11] is on record?
**A.** 0.027 µM

**Q.** With COCCOCCOCCOC(=O)/C(C#N)=C/c1ccc(-c2ccc3cc(N4CCCCC4)ccc3c2)n1C as the compound, how does the Kd [7] read?
**A.** 2.3 µM

**Q.** What does the source list for CN(C)c1ccc2cc(/C=C/C=C/C=C(C#N)C#N)ccc2c1?
**A.** tissue uptake [17]: 3.4 %ID/g; logP [8]: 4.48; Kd [7]: 0.0019 µM; Ki [7]: 0.0327 µM

**Q.** For Cc1cc(/C=C/c2ccc(N(C)C)o2)n2c1C=C1C=CC=[N+]1[B-]2(F)F, which Kd [11] is on record?
**A.** 0.149 µM

**Q.** For COCCOCCn1c2ccc(F)cc2c2cc(/C=C/c3cc[n+](CCO)c4ccccc34)ccc21, which Kd [2] is on record?
**A.** 3.22 µM

**Q.** What about the Kd [13] of the same compound?
**A.** 0.66 µM

**Q.** And the Kd [4]?
**A.** 1.9 µM

**Q.** With CN(C)c1ccc2cc3c(cc2c1)OCC(C=C(C#N)C#N)=C3 as the compound, how does the Kd [5] read?
**A.** 0.0446 µM

**Q.** With COC(=O)/C(C#N)=C/C=C/C=C/c1ccc(N(C)C)cc1 as the compound, how does the Kd [18] read?
**A.** 0.106 µM

**Q.** With CN(C)c1ccc(/C=C/C=C/C=C2C(=O)CC(C)(C)CC2=O)cc1 as the compound, how does the Ki [10] read?
**A.** 0.645 µM

**Q.** Which Kd [5] does the source give for CN(C)c1ccc(/C=C/c2cnc3ccccc3n2)s1 here?
**A.** 0.0252 µM

**Q.** And the Kd [6]?
**A.** 0.127 µM

**Q.** For COCCOCCn1c2ccccc2c2cc(/C=C/c3cc[n+](CCO)cc3)ccc21, which Kd [4] is on record?
**A.** 459 µM

**Q.** For CNc1ccc(-c2nc3ccc(O)cc3s2)cc1[18F] [FLUTEMETAMOL F 18], which Kd [5] is on record?
**A.** 0.0067 µM

**Q.** Which Ki [5] does the source give for COc1cc(/C=C/C(O)=C/C(=O)/C=C/c2ccc(OCCCF)c(OC)c2)ccc1O here?
**A.** 0.07 nM

**Q.** For C(=C\c1cc(/C=C/c2ccc(N3CCCC3)cc2)ncn1)/c1ccc(N2CCCC2)cc1, which IC50 [5] is on record?
**A.** 0.002 µM

**Q.** And the Kd [6]?
**A.** 0.052 µM

**Q.** With COCCOCCn1c2ccccc2c2cc(/C=C/c3cc[n+](CCO)c4ccccc34)ccc21 as the compound, how does the Kd [4] read?
**A.** 92 µM

**Q.** With Cc1cc(/C=C/c2ccc(-c3ccc(N(C)C)cc3)o2)n2c1C=C1C=CC=[N+]1[B-]2(F)F as the compound, how does the Kd [11] read?
**A.** 0.018 µM

**Q.** With O=C1NC(=S)NC(=O)C1=C/C=C/C=C/C1C(=O)NC(=S)NC1O (stereo not given) as the compound, how does the tissue uptake at 2 min [19] read?
**A.** 0.04 %ID/g

**Q.** With CN(C)c1ccc2nc(C=C(C#N)C#N)sc2c1 as the compound, how does the Kd [3] read?
**A.** 0.12 µM

From ChEMBL document CHEMBL5137055, “Near-Infrared Fluorescent Probes as Imaging and Theranostic Modalities for Amyloid-Beta and Tau Aggregates in Alzheimer's Disease” (J Med Chem, 2022)
